# Experimental data from paper PMC6264499, “In silico identification and experimental validation of hits active against KPC-2 β-lactamase” (PLoS ONE, 2018).
# Assays:
# [1] = molecular target: T1, recombinant KPC-2 (Klebsiella pneumoniae, UniProt Q9F663); assay: KPC-2 inhibition assay, CENTA as reporter substrate; assay type: biochemical
# T1 construct: made in house; host or cells: E. coli BL21 (DE3)
# Experimental: (§1) The blaKPC-2 gene was kindly provided by Prof. Sergei Vakulenko (University of Notre Dame du Lac, Indiana, USA) and cloned as already reported and transformed into competent E.coli BL21 (DE3) cells for protein expression. 50 mL of Tryptic Soy Broth (TSB) (50 mg/L kanamycin) were inoculated with fresh colonies and grown at 37°C. 4 mL of the overnight culture was used to inoculate 1.3 L of TSB (50 mg/L kanamycin) grown at 37°C with shaking to an optical density of 0.5 measured at 600 nm. Then expression of recombinant bla gene was induced by adding 1.0 mM IPTG (isopropyl-D-thiogalactopyranoside) and the cells were again allowed to grow at 20°C overnight. Bacteria were harvested by centrifugation at 4000 rpm for 20 minutes. The pelleted cells were resuspended in Tris-HCl 50 mM pH 7.4–7.5. Periplasmatic proteins were extracted as reported in the pET System Manual (TB055 10th Edition Rev. B 0403) and subsequently dialyzed in sodium acetate buffer (50 mM, pH 5.0). The protein was conveniently purified in a single step using a Macro-Prep High S resin and eluted using sodium acetate 50 mM pH 5.0 and a sodium chloride (NaCl) linear gradient from 100 to 500 mM. The purified protein was dialyzed overnight in sodium phosphate buffer 50 mM, pH 7.0 [31, 32].
# (§2) The hydrolytic activity of KPC-2 was measured using the β-lactam substrates CENTA (100 uM, KM 70 uM) or nitrocefin (114 uM, KM 36 μM) in reaction buffer consisting of 50 mM of PB at pH 7.0 at 25°C with 0.01% v/v Triton X-100 to avoid compound aggregation and promiscuous inhibition.[33] Reactions were monitored using a Beckmann DU640 spectrophotometer at […] for CENTA and 480 nm wavelength for nitrocefin [34]. The test compounds were synthesized as described below or purchased from Enamine, TimTec, Vitas-M, ChemBridge, Otava, Life Chemicals or Apollo Scientific and assayed without further purification. Compounds were dissolved in dimethyl sulfoxide (DMSO) to a concentration of 25 mM and stored at -20°C. The highest concentration at which the compounds were tested was up to 1 mM (depending on their solubility). All experiments were performed in duplicate and the error never exceeded 5%. The reaction was typically initiated by adding KPC-2 to the reaction buffer last. To control for incubation effects, protein was added to the reaction buffer first, and the reaction was initiated by the addition of reporter substrate after 10 minutes of enzyme-compound incubation.
# Fig 4 Inhibitory activity of compounds selected from virtual screening. ^[a]Assays were performed in duplicate (errors were less than 5%) with CENTA as reporter substrate (100 μM, km 70 μM). Kinetic were monitored at 25° by following the absorbance variation at λ = 405 nm. ^[b] If no IC50 has been measured, percent inhibition at the highest tested concentration is given in parentheses. For example, > 0.50 (26%) implies that the highest concentration tested was 0.50 mM; at this concentration, the enzyme was inhibited by 26%. Therefore, IC50> 0.50 mM. When % Inhibition was below 10% No Inibition (NI) is reported. ^[c]Assays were run after 10’ incubation of the inhibitor with KPC-2. Reaction was started by the addition of CENTA. […] 0 (11) | 32a: IC50 mM ^[a,b]: 1.24
# Competitive inhibition mechanism and the Ki for compound 9a was determined by Lineweaver–Burk (LB) and Dixon plots.
# [2] = molecular target: T1, recombinant KPC-2; assay: KPC-2 inhibition assay, nitrocefin as reporter substrate; assay type: biochemical; details: for IC50: nitrocefin 114.28 μM (Km 36 μM), 25°, 485 nm
# Experimental: as §1, §2
# Kinetic were monitored at 25° by following the absorbance variation at λ = 485 nm. ^[b] If no IC50 has been measured, percent inhibition at the highest tested concentration is given in parentheses. […] When % Inhibition was below 10% No Inhibition (NI) is reported. TEXT PRINTED IN THE PICTURE: 11a: IC50 mM [a,b]: 0.036 | 1b: IC50 mM [a,b]: > 0.2 (25) | 2b: IC50 mM [a,b]: >0.6 (23) | 3b: IC50 mM [a,b]: Not tested not soluble | 4b: IC50 mM [a,b]: > 0.2 (16) | 5b: IC50 mM [a,b]: > 0.2 (13) | 6b: IC50 mM [a,b]: NI at 0.2 | 7b: IC50 mM [a,b]: >1.0 (30) | 8b: IC50 mM [a,b]: > 1.0 (37) | 9b: IC50 mM [a,b]: NI at 0.5 | 10b: IC50 mM [a,b]: NI at 0.5 | 11b: IC50 mM [a,b]: > 1.0 (37) | 12b: IC50 mM [a,b]: NI at 0.5 | 13b: IC50 mM [a,b]: NI at 0.5 | 14b: IC50 mM [a,b]: >500 (20) DOUBTS OF THE COPYIST ABOUT THIS PICTURE: column head: raised note printed very small, read as [a,b]
# [3] = test system: Kpn 53A8; assay: MIC of meropenem, alone or 1:1 with compounds, KPC-2 clinical strain; assay type: cell-based, K. pneumoniae; details: strain Kpn 53A8
# Experimental: The antimicrobial activity of the best hits 9a and 11a and their derivatives was studied in bacterial cell cultures to investigate their ability to cross the outer membrane reaching the periplasmic space, where KPC-2 is secreted and confined in Gram negative bacteria. Compounds were tested for synergy with the β-lactam antibiotic meropenem against four K. pneumoniae clinical strains, isolated from different patients at the Hospital Universitario Son Espases, Palma de Mallorca, Spain. […] The three additional strains harbored the blaKPC-2 gene and were resistant to meropenem (Table 2). […] However, against strain Kpn 53A8 the MIC value was lowered by a factor of two when meropenem was combined with compounds 32a, 1b, 2b, 5b and 6b while in combination with compound 11a the MIC value was reduced by 4 fold.
# [4] = CENTA 100 μM (km 70 μM), 25°, 405 nm, no pre-incubation, read-out: IC50
# [5] = read-out: percent inhibition at the highest tested concentration
# T1 sequence (Q9F663 25-293, looked up): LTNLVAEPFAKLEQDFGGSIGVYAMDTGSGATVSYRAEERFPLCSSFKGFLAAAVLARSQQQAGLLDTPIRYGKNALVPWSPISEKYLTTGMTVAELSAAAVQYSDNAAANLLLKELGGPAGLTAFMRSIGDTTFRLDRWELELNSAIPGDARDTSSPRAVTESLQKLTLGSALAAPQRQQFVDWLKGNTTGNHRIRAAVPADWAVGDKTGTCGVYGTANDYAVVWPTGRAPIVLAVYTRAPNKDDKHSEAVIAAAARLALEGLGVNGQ
smiles,measurement,setting,value
Cc1nn(CC(=O)O)c(C)c1NS(=O)(=O)CC(F)(F)F [29a],IC50,[1]; [4],> 1000 µM
same,inhibition at 1000 µM,[1]; [5],15%
Cc1nn(CC(=O)O)c2nccc(-c3cnn(C)c3)c12 [26a],IC50,[1]; [4],> 830 µM
same,inhibition at 830 µM,[1]; [5],18%
Brc1cc2c(cc1-c1nnn[nH]1)OCO2 [12a],IC50,"[1]; CENTA 100 μM, after 10' incubation of the inhibitor with KPC-2, read-out: IC50",700 µM
O=c1ccc(O)nn1-c1nnn[nH]1 [17a],IC50,[1]; [4],> 1000 µM
same,inhibition at 1000 µM,[1]; [5],23%
O=c1c2ccc(S(=O)(=O)Nc3cccc(-c4nnn[nH]4)c3)cc2nc2n1CCCCC2 [12b],inhibition at 500 µM,[2]; [5],< 10%
Cc1c(-c2cc(C(=O)O)no2)cnn1C [3a],IC50,[1]; [4],> 250 µM
same,inhibition at 250 µM,[1]; [5],13%
"CC(=O)Nc1ccc(S(=O)(=O)Nc2cccc(-c3nnn[nH]3)c2)cc1 [4b, N-(4-(N-(3-(1H-tetrazol-5-yl)phenyl)sulfamoyl)phenyl)acetamide]",IC50,[2],> 200 µM
same,inhibition at 200 µM,[2]; [5],16%
Cc1nn(CC(=O)O)c2[nH]c(=O)cc(C(F)F)c12 [16a],IC50,[1]; [4],> 1000 µM
same,inhibition at 1000 µM,[1]; [5],17%
CC(C)S(=O)(=O)Nc1ccc2c(c1)C(=O)N(C)CCO2 [15a],IC50,[1]; [4],> 660 µM
same,inhibition at 660 µM,[1]; [5],38%
CS(=O)(=O)Nc1ccc2oc(=O)sc2c1 [31a],IC50,[1]; [4],> 1000 µM
same,inhibition at 1000 µM,[1]; [5],11%
Cc1c(Br)cc(S(=O)(=O)Nc2cccc(-c3nnn[nH]3)c2)cc1[N+](=O)[O-] [9b],inhibition at 500 µM,[2]; [5],< 10%
COc1ccc(NS(C)(=O)=O)cc1 [5a],IC50,[1]; [4],> 500 µM
same,inhibition at 500 µM,[1]; [5],13%
"O=S(=O)(Nc1cccc(-c2nnn[nH]2)c1)c1ccc(Cl)cc1 [6b, N-(3-(1H-tetrazol-5-yl)phenyl)-4-chlorobenzenesulfonamide]",inhibition at 200 µM,[2]; [5],< 10%
same,fold reduction of meropenem MIC in combination with compound,[3],two
COc1ccc(-c2cn[nH]c2C(=O)O)c(OC)c1 [2a],IC50,[1]; [4],> 500 µM
same,inhibition at 500 µM,[1]; [5],38%
NS(=O)(=O)c1ccc(Cl)c(S(=O)(=O)Nc2cccc(-c3nnn[nH]3)c2)c1 [13b],inhibition at 500 µM,[2]; [5],< 10%
O=S(=O)(Nc1cccc(-c2nnn[nH]2)c1)c1ccc(C(F)(F)F)cc1 [14b],IC50,[2],> 500 µM
COc1ccc2nc(N)sc2c1 [32a],fold less active than 9a,[1]; IC50 vs KPC-2 relative to compound 9a,8 fold
same,fold reduction of meropenem MIC in combination with compound,[3],two
Cc1nc2cc(S(=O)(=O)Nc3cccc(-c4nnn[nH]4)c3)ccc2n1-c1ccccc1 [11b],IC50,[2],> 1000 µM
same,inhibition at 1000 µM,[2]; [5],37%
CS(=O)(=O)Nc1ccc(C(N)=O)cc1 [6a],IC50,[1]; [4],> 1000 µM
same,inhibition at 1000 µM,[1]; [5],18%
NC(=O)c1ccc(-c2nnn[nH]2)cc1 [13a],inhibition at 250 µM,[1]; [5],< 10%
"O=S(=O)(Nc1cccc(-c2nnn[nH]2)c1)c1cccc(F)c1 [1b, N-(3-(1H-tetrazol-5-yl)phenyl)-3-fluorobenzenesulfonamide]",IC50,[2],> 200 µM
same,inhibition at 200 µM,[2]; [5],25%
same,fold reduction of meropenem MIC in combination with compound,[3],two
Cn1c(=O)c2n[nH]c(=O)nc2n(C)c1=O [14a],IC50,[1],> 1000 µM
same,inhibition at 1000 µM,[1]; [5],26%
